Where two headings read alike, the source gives them in different places.
How the values were obtained:
[1] = tested on: defective Achilles tendon model; assay: Hydroxyproline content analysis of tendon tissue; type: in vivo, mouse
Procedure: All experiments using mice were conducted in compliance with the relevant laws and institutional guidelines of the Institutional Animal Care and Use Committee (IACUC) of Korea University Medical Center and received IACUC approval (Approval No. KOREA-2018-0049). […] […] 1 mg) and […] […] To hydrolyze the tendon tissue, 5 mg was immersed in a 6N HCl solution and then heated at 120° C. for 3 hours. After hydrolysis, the tendon tissue was centrifuged at 3000 rpm for 3 minutes, and the supernatant was collected and transferred to a 96-well plate. Thereafter, the 96-well plate was incubated in a dry oven at 60° C. for 12 hours. A Chloramine T reagent (6 μL) was mixed with an oxidation buffer (94 μL), and the mixture was added to each sample or a standard solution. The resulting solution was slowly transferred to a 96-well plate, and a p-dimethylaminobenzaldehyde reagent (100 μL) was added to each sample or standard, and then incubated at 60° C. for 90 minutes. The hydroxyproline content was measured at an optical density of […] using a Flash Multimode Reader (VarioskanTM, Thermo Scientific, USA).

[2] = tested on: defective Achilles tendon model; assay: Biomechanical test of Achilles tendon (stiffness, tensile strength); type: in vivo, rats
[3] = tested on: anti-inflammatory cytokines IL-4 and IL-10; assay: RT-PCR of blood in defective Achilles tendon model: anti-inflammatory cytokines; type: in vivo, mice; conditions: 4 weeks
[4] = cited from earlier work
[5] = in vivo; cited from earlier work

`Cc1ccc(-c2cc(C(F)(F)F)nn2-c2ccc(S(N)(=O)=O)cc2)cc1` [CXB, Celecoxib] gave a hydroxyproline content ([1]; injected once per week) of 15.3 µg/mg, a hydroxyproline content ([1]; injected three times per week) of 17.2 µg/mg and a stiffness ([2]; injected once per week) of 16.4 N/mm. For the same compound, the tensile strength ([2]; injected once per week) was 12.5 MPa, the stiffness ([2]; injected three times per week) was 18.6 N/mm and the “IL-4 expression increase compared with control group” value ([3]; treated once) was 1.2 fold. The “IL-10 expression increase compared with control group” value ([3]; treated once) was 1.3 fold, the “IL-4 expression increase compared with control group” value ([3]; treated three times) was 1.3 fold and the “IL-10 expression increase compared with control group” value ([3]; treated three times) was 1.5 fold.

For `CC1(C)O[C@@H]2C[C@H]3[C@@H]4CCC5=CC(=O)C=C[C@]5(C)[C@@]4(F)[C@@H](O)C[C@]3(C)[C@]2(C(=O)CO)O1` [TCA, triamcinolone acetonide], the half-life ([4]; in vivo) is given as 1.47 h and the “half-life of TCA without a delivery carrier” value [5] is given as 1.27 h.

In the case of `O=C(O)Cc1ccccc1Nc1c(Cl)cccc1Cl` [diclofenac], the half-life ([4]; direct IA administration, reported by Larsen et al.) is given as 5.2 h.

From patent publication US20260248920A1, “COMPOSITION FOR PREVENTING OR TREATING INFLAMMATORY DISEASES, CONTAINING POLY(ORGANOPHOSPHAZENE) POLYMER” (KOREA INSTITUTE OF SCIENCE AND TECHNOLOGY, priority 2022, published 2026)
